Laboratory results: publication PMC5306082, “Physiologically based kinetic modeling of the bioactivation of myristicin” (Archives of Toxicology, 2016)

Key:
[1] = Sulfonation of 1′-hydroxymyristicin, male rat liver S9; assay type: in vitro ADME; conditions: S9 protein yield 143 mg/g liver
Protocol: The formation of 1′-sulfoxymyristicin was determined using incubations containing male rat liver Sprague–Dawley or pooled gender human liver S9 proteins, PAPS as a cofactor, and GSH, which acts as a scavenger of the reactive carbocation formed due to the unstable nature of the 1′-sulfoxy metabolite in an aqueous environment (van den Berg et al. [2012]; Martati et al. [2011]; Al-Subeihi et al. [2011]). Incubation mixtures containing (final concentrations) 10 mM of GSH, 0.2 mM of PAPS, and 3 mg/ml of S9 proteins in 0.1 M potassium phosphate (pH 8.2) were pre-incubated for 1 min at 37 °C. After the pre-incubation, 1′-hydroxymyristicin dissolved in DMSO was added in final concentrations ranging between 10 and 6000 μM while keeping the final content of DMSO at 1 % (v/v). The reaction was terminated after 360 min of incubation by adding 25 μl (0.25 times the incubation volume) of ice-cold ACN. The formation of the GSH conjugate of 1′-sulfoxymyristicin was linear with time and S9 protein concentrations under the experimental conditions used. Blank incubations were performed in the absence of PAPS. Incubations were performed in triplicate. All samples were centrifuged for 5 min at 16,000×g, and the supernatant was stored at −20 °C until ultra-performance liquid chromatography (UPLC) analysis.
Quantification of 1′-sulfoxymyristicin was done using UPLC analysis as described for the estimation of 1′-sulfoxysafrole (Martati et al. [2011]). […] The gradient for analysis of the metabolite consisted of a mixture of ACN and ultrapure water containing 0.1 % (v/v) TFA. The flow rate was 0.6 ml/min, starting at 0 % ACN and increasing the percentage of ACN to 20 % over 0.2 min, followed by an increase to 30 % ACN over 4.3 min, then increasing to 100 % over 0.3 min, and keeping it at 100 % for 0.2 min, and finally decreasing to 0 % over 0.2 min and keeping it at 0 % for 0.8 min. Separation and purification of the GSH adduct of 1′-sulfoxymyristicin was performed by collecting the peak of the metabolite from the UPLC column. […]

[2] = Oxidation of 1′-hydroxymyristicin to 1′-oxomyristicin, rat liver microsomes; assay type: in vitro ADME; conditions: rat vs human
Protocol: The kinetic constants for the enzymatic conversion of 1′-hydroxymyristicin to 1′-oxomyristicin were determined using incubation mixtures containing (final concentrations) 3 mM NAD^+, 2 mM GSH, and 1 mg/ml rat or human liver microsomes in 0.2 M Tris–HCl (pH 7.4). GSH was added to the incubation mixtures to trap the reactive 1′-oxo metabolite formed after oxidation of 1′-hydroxymyristicin. The level of GSH in the incubations was optimized in a previous study to obtain maximum scavenging of 1′-oxoestragole (Punt et al. [2009]). To this end, incubations were performed in the presence of increasing concentrations of GSH, ranging from 2 to 10 mM. […] Kinetic constants for this reaction in rat and human liver were derived by performing incubations with NAD^+ as a cofactor, given that in rat and human liver, NAD^+ is mainly present in an oxidized form with levels of NAD^+ being much higher than those of NADH. In a previous study, it was shown that the highest level of 1′-hydroxy alkenylbenzene oxidation occurs in incubations with microsomes in the presence of NAD^+ as cofactor. […] The enzyme responsible for the oxidation may be 17β-hydroxysteroid dehydrogenase type 2 (17β-HSD2) (Punt et al. [2010]). Prior to the addition of 1′-hydroxymyristicin at final concentrations ranging between 10 and 4000 μM to the incubation mixture from 100 times concentrated stock solutions in DMSO, samples were pre-incubated for 1 min at 37 °C. Reactions were terminated after 10 min of incubation at 37 °C by adding 25 μl (0.25 times the incubation volume) of ice-cold ACN. The formation of the GSH conjugate of 1′-oxomyristicin (GS-1′-oxomyristicin) was linear with time and microsomal protein concentration under the experimental conditions used. Blank incubations were performed without the cofactor NAD^+. Incubations were performed in triplicate. All samples were centrifuged for 5 min at 13,000×g, and the supernatant was stored at −20 °C until UPLC analysis.
Quantification of GS-1′-oxomyristicin was based on a calibration curve of the GSH adduct of the synthesized 1′-oxymyristicin made as previously described (van den Berg et al. [2012]; Punt et al. [2009]; Martati et al. [2011]; Al-Subeihi et al. [2011]). In short, a 60 μM concentration of the synthetic standard of 1′-oxomyristicin, dissolved in ACN, was incubated with different concentrations of GSH (i.e., 0–20 μM) in 0.2 M Tris–HCl (pH 7.4) for 6 h at 37 °C, resulting in full conversion of the GSH to GS-1′-oxymyristicin. Quantification was done by comparing the peak areas of the formed GS-1′-oxo metabolite in the incubation mixtures with peak areas of the GS-1′-oxymyristicin calibration curve thus obtained at a wavelength of 212 nm. The gradient for analysis of the metabolite consisted of a mixture of ACN and ultrapure water containing 0.1 % (v/v) TFA. The flow rate was 0.6 ml/min, The gradient started with 10 % ACN, increased to 30 % ACN over 2.5 min, after which ACN was increased to 80 % over 0.5 min, kept at 80 % for 0.5 min, followed by a decrease to 10 % over 0.5 min, and finally kept at 10 % for 0.5 min.

C=CC(O)c1cc(OC)c2c(c1)OCO2 (centres unmarked) [1′-Hydroxymyristicin, 1′-hydroxymyristicin]
k Scaled [1]: 0.15 ml/hr/g tissue | oxidation, fold lower affinity in rat than in human [2]: 1.8 fold
